Assay results as given in patent publication US9730944B2, “Antiviral activity of novel bicyclic heterocycles” (priority 2010, dated 2017).
Values after ≈ are worked out from the molar mass of the structure shown. Where two headings read alike, the source gives them in different places.

Key:
poliovirus (PV type 2) = test: microbe, parasite or virus in culture; format: cell-based; conditions: Enterovirus C, read-out: PV-2 EC50
in vitro [1] = conditions: human
in vitro [2] = conditions: human, PV CC50
in vitro [3] = conditions: African green monkey, PV CC50
HIV-1 strain IIIB = test: Inhibition of replication of HIV-1 (IIIB strain) in MT-4 cells, MTT assay; format: cell-based; conditions: Human immunodeficiency virus 1, IIIB, MT4, 120 h; MT-4 cells, MTT assay, five days after infection, 50% protection from cytopathic effect; read-out: EC50 (μM) HIV-1 (IIIB)
poliovirus (PV type 1) = test: microbe, parasite or virus in culture; format: cell-based; conditions: Enterovirus C, read-out: PV-1 EC50
poliovirus (PV type 3) = test: microbe, parasite or virus in culture; format: cell-based; conditions: Enterovirus C, read-out: PV-3 EC50
HIV-2 strain (ROD) = test: Inhibition of replication of HIV-2 (ROD strain) in MT-4 cells, MTT assay; format: cell-based; conditions: Human immunodeficiency virus 2, MT4, 120 h; MT-4 cells, MTT assay, five days after infection, 50% protection from cytopathic effect; read-out: EC50 (μM) HIV-2 (ROD)

Structure (SMILES)	EC50 (poliovirus (PV type 2); HeLa) [µg/mL]	EC50 (poliovirus (PV type 2); Vero) [µg/mL]	CC50 (in vitro [1]) [µM]	CC50 (in vitro [2]) [µg/mL]	CC50 (in vitro [3]) [µg/mL]	EC50 (HIV-1 strain IIIB) [µM]	EC50 (poliovirus (PV type 1); HeLa) [µg/mL]	EC50 (poliovirus (PV type 1); Vero) [µg/mL]	EC50 (poliovirus (PV type 3); HeLa) [µg/mL]	EC50 (poliovirus (PV type 3); Vero) [µg/mL]	EC50 (HIV-2 strain (ROD)) [µM]
Nc1nc(N2CCN(C(=O)COc3ccc(Cl)cc3)CC2)c2nc(Cc3ccc(F)cc3)sc2n1 [Example 46, 1-(4-(5-amino-2-(4-fluorobenzyl)thiazolo[5,4-d]pyrimidin-7-yl)piperazin-1-yl)-2-(4-chlorophenoxy)ethanone]	0.039 (≈ 0.076 µM)	0.14 (≈ 0.273 µM)	164	> 50	133 (≈ 259 µM)	0.67	0.11 (≈ 0.214 µM)	0.12 (≈ 0.234 µM)	0.11 (≈ 0.214 µM)	> 50	1.15
Cc1nc(N2CCN(C(=O)COc3ccc(Cl)cc3)CC2)c2nc(-c3ccc(F)cc3)sc2n1 [Example 47, 2-(4-chlorophenoxy)-1-(4-(2-(4-fluorophenyl)-5-methylthiazolo[5,4-d]pyrimidin-7-yl)piperazin-1-yl)ethanone]	≥ 50	0.35 (≈ 0.703 µM)	> 50	> 50	> 150	> 50	> 50	0.64 (≈ 1.29 µM)	> 50	> 50	> 50
Nc1nc(N2CCN(C(=O)COc3ccc(Cl)cc3)CC2)c2nc(CCOc3ccc(F)cc3)sc2n1 [Example 48, 1-(4-(5-amino-2-(2-(4-fluorophenoxy)ethyl)thiazolo[5,4-d]pyrimidin-7-yl)piperazin-1-yl)-2-(4-chlorophenoxy)ethanone]	0.36 (≈ 0.663 µM)	0.082 (≈ 0.151 µM)	11.7	49.4 (≈ 91 µM)	> 150	0.63	0.35 (≈ 0.645 µM)	0.11 (≈ 0.203 µM)	0.97 (≈ 1.79 µM)	0.36 (≈ 0.663 µM)	5.12
Nc1nc(N2CCN(C(=O)COc3ccc(F)cc3)CC2)c2nc(CCc3ccc(F)cc3)sc2n1 [Example 51, 1-(4-(5-amino-2-(4-fluorophenethyl)thiazolo[5,4-d]pyrimidin-7-yl)piperazin-1-yl)-2-(4-fluorophenoxy)ethanone]	0.23 (≈ 0.45 µM)	0.13 (≈ 0.255 µM)	210	> 50	50 (≈ 97.9 µM)	4.9	0.13 (≈ 0.255 µM)	0.12 (≈ 0.235 µM)	20.2 (≈ 39.5 µM)	2.68 (≈ 5.25 µM)	> 210
Cc1cccc(OCC(=O)N2CCN(c3nc(N)nc4sc(CCc5ccc(F)cc5)nc34)CC2)c1 [Example 53, 1-(4-(5-amino-2-(4-fluorophenethyl)thiazolo[5,4-d]pyrimidin-7-yl)piperazin-1-yl)-2-(m-tolyloxy)ethanone]	9.73 (≈ 19.2 µM)	0.14 (≈ 0.276 µM)	201	> 50	> 150	> 7.96	0.41 (≈ 0.809 µM)	0.12 (≈ 0.237 µM)	> 16.7	1.4 (≈ 2.76 µM)	> 7.96
Nc1nc(N2CCN(C(=O)COc3ccc(Cl)cc3Cl)CC2)c2nc(CCc3ccc(F)cc3)sc2n1 [Example 54, 1-(4-(5-amino-2-(4-fluorophenethyl)thiazolo[5,4-d]pyrimidin-7-yl)piperazin-1-yl)-2-(2,4-dichlorophenoxy)ethanone]	≥ 50	≥ 50	157	> 50	138 (≈ 245 µM)	> 157	> 50	> 50	≥ 50	> 50	> 157
Nc1nc(N2CCN(C(=O)CCOc3ccc(F)cc3)CC2)c2nc(CCc3ccc(F)cc3)sc2n1 [Example 55, 1-(4-(5-amino-2-(4-fluorophenethyl)thiazolo[5,4-d]pyrimidin-7-yl)piperazin-1-yl)-3-(4-fluorophenoxy)propan-1-one]	≥ 50	≥ 50	57.1	> 50	94.9 (≈ 181 µM)	> 57.1	> 50	> 50	> 50	> 50	> 57.1
CC(c1ccc(F)cc1)c1nc2c(N3CCN(C(=O)COc4ccc(Cl)cc4)CC3)nc(N)nc2s1 (stereo not shown) [Example 66, 1-(4-(5-amino-2-(1-(4-fluorophenyl)ethyl)thiazolo[5,4-d]pyrimidin-7-yl)piperazin-1-yl)-2-(4-chlorophenoxy)ethanone]	≥ 50	0.11 (≈ 0.209 µM)	> 50	> 50	130 (≈ 246 µM)	> 50	> 50	0.29 (≈ 0.55 µM)	> 50	0.56 (≈ 1.06 µM)	> 50
Nc1nc(N2CCN(C(=O)COc3ccc(Cl)cc3)CC2)c2nc(C(Cc3ccccc3)c3ccc(F)cc3)sc2n1 (stereo not shown) [Example 67, 1-(4-(5-amino-2-(1-(4-fluorophenyl)-2-phenylethyl)thiazolo[5,4-d]pyrimidin-7-yl)piperazin-1-yl)-2-(4-chlorophenoxy)ethanone]	≥ 50	11.9 (≈ 19.7 µM)	> 50	> 50	114 (≈ 189 µM)	> 50	> 50	> 50	> 50	> 50	> 50
Cc1nc(N2CCN(C(=O)COc3ccc(Cl)cc3)CC2)c2nc(-c3ccc(F)cc3)oc2n1 [Example 168, 2-(4-chlorophenoxy)-1-(4-(2-(4-fluorophenyl)-5-methyl-oxazolo[5,4-d]pyrimidin-7-yl)piperazin-1-yl)ethanone]	≥ 50	≥ 50	> 50	> 50	83.3 (≈ 173 µM)	> 50	> 50	> 50	> 50	> 50	> 50
O=C(COc1ccc(Cl)cc1)N1CCN(c2ncnc3oc(Cc4ccc(F)cc4)nc23)CC1 [Example 170, 2-(4-chlorophenoxy)-1-(4-(2-(4-fluorobenzyl)oxazolo[5,4-d]pyrimidin-7-yl)piperazin-1-yl)ethanone]	≥ 50	1.76 (≈ 3.65 µM)	> 50	> 50	105 (≈ 218 µM)	4.03	> 50	> 50	> 50	> 50	> 50
COc1ccc(OCC(=O)N2CCN(c3ncnc4sc(CCc5ccc(F)cc5)nc34)CC2)cc1 [Example 302, 1-(4-(2-(4-fluorophenethyl)thiazolo[5,4-d]pyrimidin-7-yl)piperazin-1-yl)-2-(4-methoxyphenoxy)ethanone]	< 0.023	< 0.023	–	> 50	50 (≈ 98.5 µM)	–	< 0.023	< 0.023	< 0.023	0.085 (≈ 0.167 µM)	–
O=C(COc1ccc(Cl)cc1)N1CCN(c2ncnc3sc(-c4ccc(F)cc4)cc23)CC1 [Example 312, 2-(4-chlorophenoxy)-1-(4-(6-(4-fluorophenyl)thieno[2,3-d]pyrimidin-4-yl)piperazin-1-yl)ethanone]	1.28 (≈ 2.65 µM)	0.68 (≈ 1.41 µM)	–	> 50	116 (≈ 240 µM)	–	3.77 (≈ 7.81 µM)	1.12 (≈ 2.32 µM)	> 1.85	2.05 (≈ 4.24 µM)	–
CCCCc1nc(N2CCN(C(=O)COc3ccc(Cl)cc3)CC2)c2cc(-c3ccc(F)cc3)sc2n1 [Example 313, 1-(4-(2-butyl-6-(4-fluorophenyl)thieno[2,3-d]pyrimidin-4-yl)piperazin-1-yl)-2-(4-chlorophenoxy)ethanone]	≥ 50	≥ 50	–	> 50	> 150	–	> 50	> 50	> 50	> 50	–
